Peptide text beside a SMILES is read from it.
Legend:
Format in all cases: binding
c-MycC52 iM = assay: Fluorescent indicator displacement (FID) assay with Thiazole Orange; details: 1 µM c-MycC52, 2 µM TO, 10 mM sodium cacodylate pH 6.6, peptides 25-200 µM, n = 3
Experimental: Fluorescent indicator displacement (FID) experiments used in this publication are based on the first FID assay developed for iM DNA [35]. The FID experiments were performed on a BMG CLARIOstar plate reader using 96-well, solid black flat-bottom plates. Thiazole Orange (TO) was the indicator, and the stock solution was prepared at 10 mM in DMSO. The TO stock was diluted into the appropriate buffer to 2 µM. Each well received 9 µl of the 2 µM TO solution, was excited at 430 nm, and fluorescence emission at 450 nm was measured; this was normalized to 0% to account for background fluorescence. One microlitre of […] DNA was added to each well and shaken in the plate reader for 30 s using double orbital shaking at 700 rpm and left for 10 min to equilibrate. Following equilibration, fluorescence emission was measured and normalized to 100% representing maximum fluorescence. Peptides were titrated starting at 25 µM, with 0.9 µl additions into each well in triplicate, until a final concentration of 200 µM was reached, and fluorescence emission was measured after each addition. Fluorescence emission for each well was normalized between 0% and 100%, which was taken away from 100 to give the percentage of displacement. The data were analyzed in Origin data analysis software and fitted with a hyperbolic dose–response curve from which the DC50 value was interpolated.
The relative binding of the five peptide ligands to the folded c-MycC52 iM was assessed via a FID assay using TO (Fig. 1). These experiments were performed in 10 mM sodium cacodylate at pH 6.6, the transitional pH of the c-Myc iM-forming sequence. As iM-formation is reduced at higher pH and higher ionic strength, additional stabilizing cations were avoided to allow the highest proportion of iM formation at the highest pH, to represent as close to physiological pH conditions as possible.
Figure 1. Concentration-dependent interaction of peptides with c-MycC52 iM determined via FID assay. The assay was performed with 1 µM c-MycC52 in 10 mM sodium cacodylate, pH 6.6, in the presence of 2 µM TO. Peptide ligands were added in increments of 25 µM up to a final concentration of 200 µM. Data are presented as mean ± SD (n = 3) and fitted using a Hill-Slope dose–response curve.

DAPg = assay: UV titration, DAPg; design: key to Kd DAPg, 100 mM KCl: Binding classified as non-specific (NS) showed no consistent or concentration-dependent pattern, under the tested conditions; key to Kd DAPg: NS = non-specific binding indicates where no significant pattern of binding was observed at the concentration range of the experiment; details: for Kd DAPg: UV titration at 350 nm, 10 µM peptide, 10 mM sodium cacodylate pH 6.6, no KCl; for Kd DAPg, 100 mM KCl: UV titration, 10 mM sodium cacodylate 100 mM potassium chloride pH 6.6, two experiments
Experimental: UV titrations were recorded using an Agilent Cary-60 UV/VIS spectrometer with a 10 mm path length black-walled quartz cuvette. Oligonucleotides (c-MycC27, c-MycC52, c-MycG27, c-MycG52, DAPc, DAPg, and dsDNA; sequences listed in Supplementary Table S1) were annealed as 250 µM stock solutions in 10 mM sodium cacodylate buffer (pH 6.6) in the presence or absence of 100 mM KCl. Spectra were recorded at room temperature over a wavelength range of 300–500 nm with 1 nm intervals. Buffer-only spectra were recorded and subtracted from each dataset as blanks. Peptide ligands were prepared as 1 mM stock solutions in DMSO and added to the cuvette at a final concentration of 10 µM in buffer prior to DNA addition. DNA stock was diluted to 50 µM in buffer and was added stepwise to the peptide solution to reach 2.5 µM final concentration, followed by additions from the 250 µM DNA stock to reach final DNA concentrations of 30 or 50 µM. The absorbance at 350 nm was monitored and plotted against DNA concentration. Binding curves were fitted using a one-site binding model in GraphPad Prism version 10.1.2, and Kd values were determined from normalized data to represent the DNA-ligand bound fraction.
Despite the demonstrable importance of the extended five-tract C-rich sequence within the c-Myc promoter, most studies looking at ligand binding use the shorter sequences. […] Although the iM-targeting antibody is specific for iM as a structure, it also binds multiple types of iM-structures.

c-MycC52 = assay: 1H NMR of c-MycC52 with peptide; details: 50 µM c-MycC52, one equivalent of peptide, 10 mM sodium cacodylate pH 6.6, 10% D2O, 283 K, 600 MHz
Experimental: NMR: ^1H NMR spectra of c-MycC52 were recorded at 283 K using a Bruker Avance NEO 600 MHz spectrometer equipped with QCI-F cryoprobe operating Topspin 4.5.0. Spectra were recorded with excitation sculpting, at 27.75 ppm spectral width, 1 s acquisition time, and 1 s recycle delay. Spectra of the imino proton region were acquired with a 1D SOFAST excitation scheme with a 1293 μs Pc9_4_120 excitation pulse and 720 μs Reburp refocusing pulse, centred at 13 ppm, a 29.75 ppm spectral width, 115 ms acquisition time, and 100 ms recycle delay. Samples were annealed at a final concentration of 50 µM in 10 mM sodium cacodylate (pH 6.6). 10% D2O and 0.01% sodium trimethylsilylpropanesulfonate (DSS) were added immediately before recording NMR spectra experiments. Spectra were processed with exponential line broadening and referenced to the Sodium trimethylsilylpropanesulfonate (DSS) chemical shift. The chemical shift of the cacodylate buffer resonance was used to monitor potential pH changes between samples.
Given the selectivity of the Pep-PTN and Pep-VSE peptides for the c-Myc iM structure, both in the binding experiments and also the in vitro gene assays, we considered potential binding modes. We recorded NMR spectra of the c-MycC52 oligonucleotide in the presence and absence of Pep-VSE to give insights into potential binding sites (Supplementary Figs S17–S20). […]

Structure (SMILES) | relative binding affinity ranking (TO displacement) (c-MycC52 iM) | Kd DAPg (DAPg) | Kd DAPg, 100 mM KCl (DAPg) | effect on imino resonances of c-MycC52 (NMR) (c-MycC52)
CC(=O)N1CCC[C@H]1C(=O)N[C@H](C(=O)N[C@@H](CC(N)=O)C(=O)N[C@H](C(=O)N[C@@H](CO)C(=O)NCC(=O)N[C@@H](CCCNC(=N)N)C(=O)N[C@@H](CC(N)=O)C(=O)N[C@@H](Cc1ccc(O)cc1)C(=O)N[C@@H](CC(C)C)C(=O)N[C@@H](Cc1ccccc1)C(=O)N[C@@H](CS)C(N)=O)C(C)C)[C@@H](C)O [Pep-PTN] (Ac-PTNVSGRNYLFC-NH2) | SLC > PTN > VSE > EIE > RVS | NS | NS | –
CC(=O)N[C@H](C(=O)N[C@@H](CO)C(=O)N[C@@H](CCC(=O)O)C(=O)N[C@@H](C)C(=O)N[C@@H](Cc1c[nH]c2ccccc12)C(=O)N[C@@H](CCCCN)C(=O)N[C@@H](CCC(=O)O)C(=O)N[C@H](C(=O)N[C@@H](CCCCN)C(=O)NCC(=O)N[C@@H](Cc1ccccc1)C(=O)N[C@@H](Cc1ccccc1)C(N)=O)C(C)C)C(C)C [Pep-VSE] (Ac-VSEAWKEVKGFF-NH2) | SLC > PTN > VSE > EIE > RVS | NS | NS | no perturbations to imino resonances

From PMC12596500, “Affinity-selected peptide ligands specifically bind i-motif DNA and modulate c-Myc gene expression” (Nucleic Acids Research, 2025)
